Tests used:
BS125 cells = assay: MTT-based cell proliferation assay, BS125 cells; design: species or system human; details: 10 μM CGP57380 with increasing amounts of rapamycin, 5 days after treatment
Method: (§1) Cell proliferation was assayed using MTT-based method 5 days after treatment. Growth in untreated cells was used as a reference. Data shown are the mean±SD values of at least three separate experiments.
(§2) Human brain tumor cell lines; BS125 and LN319 were derived from human patients. The “BS” series were generated at the University of Basel, Switzerland while the “LN” series was generated in Lausanne, Switzerland (Ishii et al., […], Brain Pathol. 9:469-79). These cells were cultured in DMEM supplemented with 10% FCS and standard antibiotics in an incubator at 37° C. and 5% CO2 humidified atmosphere. Transfection was accomplished using Lipofectamine (Invitrogen) according to the supplier's instructions. For overexpression experiments, previously reported MNK1-Flag construct (Knauf et al., 2001, Mol Cell Biol. 21:5500-11) were used. […]
(§3) For cell proliferation MTT-based assays in 96-well plates, about ˜5000 cells were seeded 1 day before drug treatment. […] The number of viable cells was measured using CellTiter 96® AQueous Non-Radioactive Cell Proliferation Assay (Promega) used according to manufacturer's instruction. In addition, cell growth was also monitored by counting cell number with a Vi-Cell XR cell viability analyzer (Beckman Coulter). […] Cells were counted every day over a 5-day period.

LN319 cells = assay: MTT-based cell proliferation assay, LN319 cells; design: species or system human; details: 10 μM CGP57380 with increasing amounts of rapamycin, 5 days after treatment
Method: as §1, §2, §3

phosphorylated eIF4E = details: cells transfected with Mnk2 (Mnk2a or Mnk2b) or Mnk1; cited from earlier work
human Mnk2 protein = human Mnk2 protein (Homo sapiens, UniProt Q9HBH9); details: described in WO 02/103361; cited from earlier work
human Mnk2 protein, sequence (Q9HBH9 whole entry): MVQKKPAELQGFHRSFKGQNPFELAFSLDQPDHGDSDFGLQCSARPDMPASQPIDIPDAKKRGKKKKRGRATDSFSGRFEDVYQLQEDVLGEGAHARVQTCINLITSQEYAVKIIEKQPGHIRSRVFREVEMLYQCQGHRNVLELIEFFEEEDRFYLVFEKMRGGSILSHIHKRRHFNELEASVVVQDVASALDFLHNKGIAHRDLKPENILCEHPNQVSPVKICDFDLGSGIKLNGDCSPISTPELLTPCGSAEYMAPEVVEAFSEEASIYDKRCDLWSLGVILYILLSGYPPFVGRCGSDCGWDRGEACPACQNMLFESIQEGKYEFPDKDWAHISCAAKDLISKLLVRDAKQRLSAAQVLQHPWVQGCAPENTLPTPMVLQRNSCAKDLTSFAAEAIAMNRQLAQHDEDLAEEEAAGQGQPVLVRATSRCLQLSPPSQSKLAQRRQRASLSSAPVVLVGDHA

Row | SMILES | inhibitory effect on cell proliferation (BS125 cells) | inhibitory effect on cell proliferation (LN319 cells) | reduction of phosphorylated eIF4E (phosphorylated eIF4E) | binding to human Mnk2 protein (human Mnk2 protein)
1 | Nc1ncnc2n[nH]c(Nc3ccc(F)cc3)c12 [CGP57380] | significantly increases the inhibitory effect on cell proliferation | significantly increases the inhibitory effect on cell proliferation | strong reduction of phosphorylated eIF4E | –
2 | COC(=O)c1ccc(O)cc1 [4-hydroxybenzoic acid methyl ester] | – | – | – | binds the human Mnk2 protein

Source: patent US20110280886A1, “TREATING CANCER BY MODULATING MNK” (UNIVERSITY HOSPITAL BASEL, priority 2008, published 2011)
